Results from patent US10087144B2, “Agents for use in the treatment of cardiovascular and inflammatory diseases structurally based on 4(1 H)-quinolone” (UCL Business PLC, priority 2015, dated 2018).
Where two headings read alike, the source gives them in different places.

Key:
[1] = test system: human platelets; assay: Human platelet aggregation in platelet rich plasma; type: cell-based; details: for inhibition at 1 µM: Homo sapiens
Protocol: Blood samples (35 ml) were taken from healthy volunteers who had abstained from aspirin, non-steroidal anti-inflammatory drugs or paracetamol for 14 days. Blood was collected by venepuncture into tri-sodium citrate (3.2% w/v) and centrifuged at 175 g for 15 min to obtain platelet rich plasma (PRP). Platelet poor plasma (PPP) was obtained by centrifugation of PRP at 15000 g for 5 min. The PRP (100 μl) was then added to the wells of 96-well plates and incubated for 15 mins with representative NPR-C agonists of the invention or vehicle (DMSO). Subsequently, platelet agonists (10 μl each) were added to wells in triplicate: adenosine diphosphate (ADP, 0.1-30 μM), arachidonic acid (AA, 0.03-1.3 mM), collagen (type I equine tendon 0.1-30 μg/ml), adrenaline (0.001-100 μM), ristocetin (0.2-3 mg/ml), TRAP6 (thrombin receptor activating peptide) amide (SFLLRN; 0.1-30 μM), U46619 (0.1-30 μM) or vehicle. Plates were then immediately placed in a 96-well plate reader and absorbance determined at 595 nm every 15 s for 16 min between vigorous shaking at 37° C. Changes in absorbance were converted to % aggregation by reference to the absorbances of PRP and PPP.

[2] = test system: rat mesenteric artery smooth muscle cells; assay: Ca2+ flux in response to Angiotensin II in isolated rat mesenteric artery smooth muscle cells (FLIPR); type: cell-based; details: for inhibition at 1 µM / inhibition at 10 µM: Rattus norvegicus; for inhibition at 1 µM: read-out: % inhibition 1 μM; for inhibition at 10 µM: read-out: % inhibition 10 μM
Protocol: Mesenteric artery smooth muscle cells were isolated from male Sprague-Dawley rats (200-250 g). Mesenteric arteries were dissected, cleared of extraneous tissue and incubated in an enzyme solution containing collagenase type I (1 mg/ml), soybean trypsin inhibitor (0.25 mg/ml), bovine albumin (1 mg/ml), CaCl2 (0.2 mM), 100 U/ml penicillin (100 U/ml) and streptomycin (100 μg/ml) in a humidified incubator with 5% CO2 in air. The enzyme solution was replenished at 30 min intervals and cells were pelleted by centrifugation (200 g, 5 min) and differentially plated (×2) for 15 min in Dulbecco's Modified Eagle's Medium (DMEM) supplemented with penicillin (100 U/ml), streptomycin (100 μg/ml), L-Glutamine (2 mM) and 10% heat inactivated New Zealand foetal calf serum. Cells were passaged by trypsinisation and viability determined by trypan blue exclusion.
Measurements of Ca^2+ flux in response to Angiotensin II were conducted using a Fluorescent Imaging Plate Reader (FLIPR; Molecular Devices). Cells were plated at a density of 10,000 cells/well into black, clear-bottomed 96-well plates in DMEM supplemented with penicillin (100 U/ml), streptomycin (100 μg/ml), L-Glutamine (2 mM) and 10% heat inactivated New Zealand foetal calf serum. 24 hrs later the cells were incubated with Fluo-3-AM (4 μM) for 60 min at 37° C. Once dye-loaded, the cells were washed thoroughly with the proprietary assay buffer to remove any unincorporated dye. The cells were then incubated with varying concentrations of a number of representative NPR-C agonist molecules of the invention, C-type natriuretic peptide or vehicle (DMSO) and placed into the FLIPR. After 15 mins, Angiotensin II (100 nM) was automatically dispensed into each well and the fluorescence signal followed for 5 mins. Potency was determined by comparison of the peak fluorescence in each test well (run in triplicate) with that of the control (Angiotensin II alone). Background fluorescence (assay buffer only) was subtracted from all values.

[3] = test system: rat mesenteric arteries; assay: Vasoreactivity in rat mesenteric arteries in vitro (relaxation of U46619-contracted vessels, tension myograph); details: for EC50: vasorelaxation, calculated from concentration-response curves
Protocol: Male rats (Sprague-Dawley; 200-250 g) were stunned and killed by cervical dislocation. The mesentery was removed and third-order arteries mounted in an automated tension myograph (Danish Myotechnology). After an equilibration period of 45 min, vessels were normalized and diameter determined. Following normalization, each vessel was contracted repeatedly with the thromboxane A2-mimetic 9,11-dideoxy-11^α,9^α-epoxymethano-prostaglandin F2α (U46619; 1 μM) until the response was reproducible. The vessels were then washed to restore basal tone before contracting to approximately 50% of the maximum U46619-induced response. Once a stable response to U46619 was achieved, cumulative concentration-response curves were constructed with a variety of NPR-C agonists of the invention at varying concentrations (0.001-30 μM), or vehicle (DMSO). In some studies, concentration-response curves to NPR-C agonists were conducted in the presence of the NPR-C antagonist M372049 (10 μM). Only one curve to any one agonist was constructed in any single tissue.

[4] = biological target: Human NPR-C (Homo sapiens (Human), UniProt P17342); assay: Surface plasmon resonance (SPR) spectroscopy, binding to immobilised human NPR-C; details: FIGS. 5, 6 and 7
Protocol: All SPR analysis was performed on a BIAcore T200 system using series S CM5 sensor chips. Data processing and analysis were performed using BIAevaluation software and Scrubber2. All sensorgrams were double referenced by subtracting the response on a reference flowcell and a blank sample.
Human NPR-C (OriGene, Rockville, USA), was covalently attached to a CM5 chip via amine coupling. A surface density of 2700 RU was used for measurements with natriuretic peptides and the NPR-C antagonist M372049, and a density of 5200 RU for measurements with compound 118. Sequential injections of CNP (0.25, 0.50, 1, 2 & 4 nM) were performed at a flow rate of 30 μL/min for (240 s for each), followed by a dissociation time of 3600 s. Binding site saturation was observed and the surface was regenerated by two injections of 1M NaCl (200 s each). Binding of M372049 (0.94, 1.88, 3.75, 7.5, 15, 30 & 60 nM) and Compound 118 (1.17, 2.34, 4.70, 9.38, 18.75, 37.50, 75 & 150 μM) was analysed by sequential injections (120 s for M372049, 30 s for compound 118) followed by undisturbed dissociation (600 s for M372049, 30 s for compound 118), during which curves returned to baseline. Kinetic parameters were calculated assuming a simple 1:1 (Langmuir) binding.

[5] = test system: arterial blood pressure; assay: Mean arterial pressure measurements in anesthetized mice; type: in vivo
Protocol: Mice were maintained under anesthesia (isoflurane, 1-1.5%, in 100% O2 at 0.4 L·min) throughout the experiment and body temperature was kept constant at 37.5° C. A Millar pressure transducer catheter (Millar Instruments, Houston, Tex., USA) was placed in the carotid artery for arterial blood pressure (BP) measurements and a tube catheter (polyvinyl tubing, 0.61 mm outside diameter) in the jugular vein for intravenous bolus doses of 118 ([…]) and vehicle (10% DMSO in PBS) using a 0.5 mL insulin syringe. A pump (flow 0.5 ml/h) was used for infusion of 118 (1 mg/kg/min) or vehicle (10% dimethylsulfoxide; DMSO in PBS) during 10 min. BP was evaluated throughout.

[6] = 1 μM compound, inhibition of Angiotensin II (100 nM) Ca2+ flux peak fluorescence
[7] = 10 μM compound, inhibition of Angiotensin II (100 nM) Ca2+ flux peak fluorescence

Sequence of Human NPR-C (P17342 27-541): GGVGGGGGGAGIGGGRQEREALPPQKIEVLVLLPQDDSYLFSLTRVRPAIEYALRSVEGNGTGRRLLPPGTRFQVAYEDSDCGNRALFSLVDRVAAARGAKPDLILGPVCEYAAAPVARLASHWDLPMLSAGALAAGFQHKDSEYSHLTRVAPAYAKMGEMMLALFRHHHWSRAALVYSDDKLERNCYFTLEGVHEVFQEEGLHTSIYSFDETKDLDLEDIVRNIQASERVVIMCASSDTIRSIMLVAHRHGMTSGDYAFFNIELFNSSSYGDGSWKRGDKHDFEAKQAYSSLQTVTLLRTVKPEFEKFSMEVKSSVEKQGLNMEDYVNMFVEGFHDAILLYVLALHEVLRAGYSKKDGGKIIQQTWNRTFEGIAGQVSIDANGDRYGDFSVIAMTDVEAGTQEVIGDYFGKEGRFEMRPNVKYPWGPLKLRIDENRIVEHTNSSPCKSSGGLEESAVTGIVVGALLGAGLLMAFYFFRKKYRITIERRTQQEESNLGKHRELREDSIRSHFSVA

EC50 [3] [nM] | Molecule | inhibition at 1 µM [1] [%] | inhibition at 1 µM [2] [%] | inhibition at 10 µM [2] [%] | inhibition at 1 µM ([3]; Rattus norvegicus, 1 μM, U46619-contracted third-order arteries) [%] | inhibition at 3 µM ([3]; Rattus norvegicus, 3 μM, U46619-contracted third-order arteries) [%] | inhibition at 10 µM ([3]; Rattus norvegicus, 10 μM, U46619-contracted third-order arteries) [%] | inhibition at 30 µM ([3]; Rattus norvegicus, 30 μM, U46619-contracted third-order arteries) [%] | EC50 ([3]; Rattus norvegicus) [nM] | inhibition at 1 µM [2, 6] [%] | inhibition at 10 µM [2, 7] [%] | binding to human NPR-C (SPR) [4] | change in BP after intravenous bolus doses ([5]; i.v. bolus, FIG. 2) | change in BP during infusion ([5]; infusion 1 mg/kg/min during 10 min, FIG. 3) | % inhibition of human platelet aggregation (at 1 microM) [1] [%] | % inhibition 1 μM [2, 6] [%] | % inhibition 10 μM [2, 7] [%]
– | CC(C)(C)OC(=O)CNC(=O)c1cn(Cc2ccccc2)c2ccc(Br)cc2c1=O [Compound 28, tert-butyl 2-(1-benzyl-6-bromo-4-oxo-1,4-dihydroquinoline-3-carboxamido)acetate] | 14.3 | 100 | 100 | 22 | 55 | 97 | 100 | 1600 | – | – | – | – | – | – | – | –
– | O=C(O)CNC(=O)c1cn(Cc2ccccc2)c2ccc(Br)cc2c1=O [Compound 118, 2-(1-benzyl-6-bromo-4-oxo-1,4-dihydroquinoline-3-carboxamido)acetic acid] | 16.7 | – | – | – | – | – | – | 2800 | 95 | 100 | binding | dose-dependent decrease in BP | reduction in BP that was sustained during 10 minutes | – | – | –
13.8 | C-type natriuretic peptide [CNP, reference compound] | – | – | – | – | – | – | – | – | – | – | binding | – | – | 71.8 | 100 | 100
